According to patent US20220031596A1, “ANTI-AGING AGENT AND ANTI-AGING METHOD” (priority 2018, published 2022):

Key:
Assay type in all cases: in vivo, human
[1] = system: mRNA expression level of the sirtuin gene Sirt1; assay: Evaluation of sirtuin 1 (Sirt1) secretion promoting effect (blood Sirt1 mRNA by real-time PCR, 24-week oral ingestion); conditions: for mRNA expression level of the sirtuin gene Sirt1 (relative to that of GAPDH), 0 weeks (before ingestion) / mRNA expression level of the sirtuin gene Sirt1 (relative to that of GAPDH), 24 weeks (after ingestion) / mRNA expression level of the sirtuin gene Sirt1 (relative to that of GAPDH), Change rate (24 weeks - 0 weeks): blood, High Dose Group (200 mg/daily, oral), mean±SD; for mRNA expression level of the sirtuin gene Sirt1 (relative to that of GAPDH), 0 weeks (before ingestion): baseline
Protocol: In order to confirm a change in the Sirt1 quantity before and after ingestion of the nicotinamide mononucleotide, a test was conducted on healthy males and females aged 50 to 70 years.
As a sample of Working Example 13, a capsule formulation containing the nicotinamide mononucleotide and starch (200 mg of the nicotinamide mononucleotide in 4 capsules) (manufactured by SHINKOWA PHARMACEUTICAL Co., Ltd.) was used.
(§1) Each group consisting of five healthy males and females aged 50 to 70 years in an unbiased age group ingested the above high dose capsule formulation once a day by 4 capsules for 24 weeks (total 10 subjects, 200 mg/daily ingestion). In order to conduct appropriate evaluations, those who had been regularly using medical products for chronic diseases, those who had been consuming healthy foods that may affect clinical research, and those who were currently participating in other clinical researches or clinical trials or had participated in other clinical researches or clinical trials within the last three months were excluded from the subject for the evaluation. The capsule formulations were ingested at 10 am (between meals and fasting state) together with water or lukewarm water (oral administration).
Measurement of the Sirt1 quantity in the blood was conducted by requesting the measurement to an external public organization according to a usual method. The mRNA expression level of the sirtuin gene Sirt1 was analyzed by a real-time PCR method with the blood collected before the ingestion of the nicotinamide mononucleotide (0 weeks) and after the ingestion of the nicotinamide mononucleotide (24 weeks). Note that, in this analysis, cDNA was purified on the day when the blood sample was collected and stored at −80° C. until all samples were prepared. The samples were then subjected to the real-time PCR method at the same time. The expression level was normalized using GAPDH as a reference gene. Table 12 indicates the numerical values of the mRNA expression level of the sirtuin gene Sirt1 (relative to that of GAPDH). Note that the numerical values represent mean values±standard deviation.

[2] = Safety observation in subjects after ingestion for 24 weeks (complaints, stool abnormality); conditions: healthy males and females aged 50 to 70 years, oral
Protocol: as §1, with “the above low dose capsule formulation once a day by 4 capsules for 24 weeks (total 10 subjects, a low dose group: 100 mg/daily ingestion). On the other hand, each group consisting of five healthy males and females aged 50 to 70 years in the unbiased age group ingested the above high dose” for “the above high dose”, “10 subjects, a high dose group: 200 mg/daily” for “10 subjects, 200 mg/daily”, “or clinical trials, or had” for “or clinical trials or had”

[3] = system: prolactin concentration in the plasma; assay: Evaluation of prolactin secretion promoting effect (plasma prolactin, 24-week oral ingestion); conditions: for prolactin concentration in the plasma, 0 weeks (before ingestion) / prolactin concentration in the plasma, 24 weeks (after ingestion) / prolactin concentration in the plasma, Change rate (24 weeks - 0 weeks): Low Dose Group (100 mg/daily, oral), mean±SD; for prolactin concentration in the plasma, 0 weeks (before ingestion): baseline
Protocol: In order to confirm a change in the prolactin quantity before and after ingestion of the nicotinamide mononucleotide, a test was conducted on healthy males and females aged 50 to 70 years.
As a sample of Working Example 9, a capsule formulation containing the nicotinamide mononucleotide and starch (100 mg of the nicotinamide mononucleotide in 4 capsules) (manufactured by SHINKOWA PHARMACEUTICAL Co., Ltd.) was used.
as §1, with “100” for “200”
Measurement of the prolactin quantity in the plasma was conducted by requesting the measurement to an external public organization according to a usual method. FIGS. 18a to 18c indicate transitions of the prolactin concentration (ng/ml) in the plasma for 24 weeks. FIG. 18a represents the transitions of the whole subjects; FIG. 18b represents the transitions of the male subjects; FIG. 18c represents the transitions of the female subjects. Further, FIGS. 19a to 19c indicate change rates (%) of the blood prolactin concentration up to 24 weeks when the nicotinamide mononucleotide was orally administered to the subjects for 24 weeks. FIG. 19a represents the change rates of the whole subjects; FIG. 19b represents the change rates of the male subjects; FIG. 19c represents the change rates of the female subjects. Further, Table 9 indicates the numerical values of the prolactin concentration (ng/ml) in the plasma before the ingestion of the nicotinamide mononucleotide (0 weeks) and after the ingestion of the nicotinamide mononucleotide (24 weeks). Note that the numerical values represent mean values±standard deviation.

NC(=O)c1ccc[n+]([C@@H]2O[C@H](COP(=O)([O-])O)[C@@H](O)[C@H]2O)c1 [nicotinamide mononucleotide]
mRNA expression level of the sirtuin gene Sirt1 (relative to that of GAPDH), 0 weeks (before ingestion) ([1]; Female): 1.01 ± 0.17
mRNA expression level of the sirtuin gene Sirt1 (relative to that of GAPDH), 24 weeks (after ingestion) ([1]; Female): 1.72 ± 0.98
mRNA expression level of the sirtuin gene Sirt1 (relative to that of GAPDH), Change rate (24 weeks - 0 weeks) ([1]; Female): 1.70 ± 0.90
mRNA expression level of the sirtuin gene Sirt1 (relative to that of GAPDH), 0 weeks (before ingestion) ([1]; Male): 1.65 ± 0.99
mRNA expression level of the sirtuin gene Sirt1 (relative to that of GAPDH), 24 weeks (after ingestion) ([1]; Male): 3.69 ± 2.82
mRNA expression level of the sirtuin gene Sirt1 (relative to that of GAPDH), Change rate (24 weeks - 0 weeks) ([1]; Male): 4.67 ± 5.13
mRNA expression level of the sirtuin gene Sirt1 (relative to that of GAPDH), 0 weeks (before ingestion) ([1]; Whole Subjects): 1.33 ± 0.75
mRNA expression level of the sirtuin gene Sirt1 (relative to that of GAPDH), 24 weeks (after ingestion) ([1]; Whole Subjects): 2.71 ± 2.25
mRNA expression level of the sirtuin gene Sirt1 (relative to that of GAPDH), Change rate (24 weeks - 0 weeks) ([1]; Whole Subjects): 3.18 ± 3.81
expression level of Sirt1 in the blood, effect of ingestion (in words) ([1]; oral, 200 mg/daily, 24 weeks): increased
unidentified complaint (abdominal pain, nausea, vomiting, headache) or stool abnormality after the ingestion for 24 weeks ([2]; 100 mg and 200 mg/daily groups): did not show any unidentified complaint
unidentified complaint (abdominal pain, nausea, vomiting, headache) or stool abnormality after the ingestion for 24 weeks ([2]; 100 mg/daily): did not show any unidentified complaint
unidentified complaint (abdominal pain, nausea, vomiting, headache) or stool abnormality after the ingestion for 24 weeks ([2]; 200 mg/daily): did not show any unidentified complaint
prolactin concentration in the plasma, 0 weeks (before ingestion) ([3]; Female): 8.50 ± 2.71 ng/mL
prolactin concentration in the plasma, 24 weeks (after ingestion) ([3]; Female): 10.15 ± 3.22 ng/mL
prolactin concentration in the plasma, Change rate (24 weeks - 0 weeks) ([3]; Female): 1.66 ± 4.32 ng/mL
prolactin concentration in the plasma, 0 weeks (before ingestion) ([3]; Male): 9.23 ± 1.92 ng/mL
prolactin concentration in the plasma, 24 weeks (after ingestion) ([3]; Male): 9.58 ± 2.47 ng/mL
prolactin concentration in the plasma, Change rate (24 weeks - 0 weeks) ([3]; Male): 0.35 ± 1.40 ng/mL
prolactin concentration in the plasma, 0 weeks (before ingestion) ([3]; Whole Subjects): 8.86 ± 2.25 ng/mL
prolactin concentration in the plasma, 24 weeks (after ingestion) ([3]; Whole Subjects): 9.87 ± 2.72 ng/mL
prolactin concentration in the plasma, Change rate (24 weeks - 0 weeks) ([3]; Whole Subjects): 1.00 ± 3.10 ng/mL
prolactin concentrations in the plasma, effect of ingestion (in words) ([3]; oral, 100 mg/daily, 24 weeks, FIGS. 18a-18c, 19a-19c): increased
